≈ marks a conversion by molar mass, not a printed value.
Key:
[1] = Half life in cynomolgus monkey at 10 mg/kg, iv; format: ADME, organism-based, Macaca fascicularis; settings: in vivo
[2] = Bioavailability in mouse at 10 mg/kg, sc; format: ADME, organism-based; settings: in vivo
[3] = Clearance in cynomolgus monkey at 10 mg/kg, iv; format: ADME, organism-based, Macaca fascicularis; settings: in vivo
[4] = biological target: Sigma intracellular receptor 2 (Homo sapiens) (UniProt Q5BJF2); test: Antagonist activity at sigma2 receptor (unknown origin) at 25 uM relative to control
[5] = Volume of distribution at steady state in rat at 10 mg/kg, iv; format: ADME, organism-based; settings: in vivo, read-out: Vdss
[6] = Aqueous solubility of the compound in pH 7.4 buffer; format: physicochemical
Pseudomonas aeruginosa [7] = test: Antibacterial activity against Pseudomonas aeruginosa isolate 44 ATCC 27853; format: functional
[8] = Volume of distribution at steady state in cynomolgus monkey at 10 mg/kg, iv; format: ADME, organism-based, Macaca fascicularis; settings: in vivo, read-out: Vdss
Rattus norvegicus [9] = test: Acute toxicity in rat at 75 mg/kg using Tween-80 formulation; format: organism-based; settings: in vivo
Rattus norvegicus [10] = test: Toxicity in rat at 100 mg/kg, iv administered as bolus dose using 10% capsitol formulation for 7 days; format: organism-based; settings: in vivo, 168 h
Rattus norvegicus [11] = test: Acute toxicity in rat at 200 mg/kg using capsitol capsulated formulation; format: organism-based; settings: in vivo
Pseudomonas aeruginosa [12] = test: Antibacterial activity against Pseudomonas aeruginosa assessed as 3-log reduction in bacterial burden in in-vivo lung infection model; format: functional
Cynomolgus monkey = test: Dose normalized AUC in cynomolgus monkey at 10 mg/kg, iv; format: ADME, organism-based, Macaca fascicularis; settings: in vivo
[13] = Fraction unbound in mouse plasma at 10 uM by equilibrium dialysis method; format: ADME, cell-free
Escherichia coli [14] = test: Antibacterial activity against Escherichia coli isolate 35 ATCC 25922; format: functional
[15] = Displacement of sodium channel site 2 in [3H]Batrachotoxinin from Wistar rat brain membranes after 60 mins; design: species or system Membrane
Pseudomonas aeruginosa [16] = test: Antibacterial activity against Pseudomonas aeruginosa isolate 839 harboring mexAB-oprM deletion mutant; format: functional
[17] = Clearance in rat at 10 mg/kg, iv; format: ADME, organism-based; settings: in vivo
[18] = Volume of distribution at steady state in mouse at 2 mg/kg, iv; format: ADME, organism-based; settings: in vivo, read-out: Vdss
Escherichia coli [19] = test: Antibacterial activity against Escherichia coli assessed as 2 log reduction in bladder bacterial burden in in-vivo urinary tract infection model; format: functional
Pseudomonas aeruginosa [20] = test: Antibacterial activity against Pseudomonas aeruginosa assessed as 3-log reduction in bacterial burden in in-vivo thigh infection model; format: functional
[21] = Clearance in mouse at 2 mg/kg, iv; format: ADME, organism-based; settings: in vivo
Klebsiella pneumoniae [22] = test: Antibacterial activity against Klebsiella pneumoniae assessed as 3 log reduction in lung bacterial burden in in-vivo lung infection model; format: functional
[23] = biological target: T1, Muscarinic acetylcholine receptor M2 (Homo sapiens) (UniProt P08172); test: Antagonist activity at muscarinic M2 receptor (unknown origin) at 25 uM relative to control
T1 sequence (whole entry): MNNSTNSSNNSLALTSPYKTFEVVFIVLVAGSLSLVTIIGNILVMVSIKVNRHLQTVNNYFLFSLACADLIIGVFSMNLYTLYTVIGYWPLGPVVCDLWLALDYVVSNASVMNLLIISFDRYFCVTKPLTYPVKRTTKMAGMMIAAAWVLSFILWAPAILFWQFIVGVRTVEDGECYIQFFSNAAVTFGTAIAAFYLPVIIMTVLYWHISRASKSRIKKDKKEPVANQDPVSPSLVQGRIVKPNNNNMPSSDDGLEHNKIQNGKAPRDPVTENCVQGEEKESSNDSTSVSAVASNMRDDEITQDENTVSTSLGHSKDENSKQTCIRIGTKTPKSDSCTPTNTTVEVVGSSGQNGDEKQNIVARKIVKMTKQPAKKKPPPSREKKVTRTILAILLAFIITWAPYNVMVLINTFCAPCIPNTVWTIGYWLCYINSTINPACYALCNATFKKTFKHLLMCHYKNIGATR

Mus musculus [24] = test: Dose normalized AUC in mouse at 2 mg/kg, iv; format: ADME, organism-based; settings: in vivo
[25] = biological target: T2, UDP-3-O-acyl-N-acetylglucosamine deacetylase (Pseudomonas aeruginosa (strain ATCC 15692 / PAO1 / 1C / PRS 101 / LMG12228), UniProt P47205); test: Inhibition of LpxC in Pseudomonas aeruginosa isolate 847
T2 sequence (P47205 whole entry): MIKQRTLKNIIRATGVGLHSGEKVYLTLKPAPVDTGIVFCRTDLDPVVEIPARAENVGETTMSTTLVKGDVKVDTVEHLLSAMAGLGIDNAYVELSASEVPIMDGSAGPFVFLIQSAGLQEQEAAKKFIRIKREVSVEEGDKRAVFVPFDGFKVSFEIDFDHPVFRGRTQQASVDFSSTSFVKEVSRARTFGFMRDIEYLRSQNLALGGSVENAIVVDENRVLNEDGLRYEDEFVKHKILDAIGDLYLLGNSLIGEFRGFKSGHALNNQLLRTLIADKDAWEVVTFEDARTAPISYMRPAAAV

[26] = Half life in mouse at 10 mg/kg, sc; format: ADME, organism-based; settings: in vivo
[27] = Half life in mouse at 2 mg/kg, iv; format: ADME, organism-based; settings: in vivo
[28] = Fraction unbound in cynomolgus monkey plasma at 10 uM by equilibrium dialysis method; format: ADME, cell-free, Macaca fascicularis
[29] = Fraction unbound in rat plasma at 10 uM by equilibrium dialysis method; format: ADME, cell-free
Rattus norvegicus [30] = organism: Rattus norvegicus; test: Displacement of sodium channel site 2 in [3H]Batrachotoxinin from Wistar rat brain membranes at 25 uM after 60 mins relative to control; settings: Membrane
[31] = biological target: T2, UDP-3-O-acyl-N-acetylglucosamine deacetylase; test: Inhibition of LpxC in Pseudomonas aeruginosa isolate 44 ATCC 27853
Pseudomonas aeruginosa [32] = test: Antibacterial activity against Pseudomonas aeruginosa isolate 847; format: functional
Klebsiella pneumoniae [33] = test: Antibacterial activity against Klebsiella pneumoniae isolate 21 ATCC 4352; format: functional
Rattus norvegicus [34] = test: Dose normalized AUC in rat at 10 mg/kg, iv; format: ADME, organism-based; settings: in vivo
[35] = Fraction unbound in human plasma at 10 uM by equilibrium dialysis method; format: ADME, cell-free
Mus musculus [36] = test: Dose normalized AUC in mouse at 10 mg/kg, sc; format: ADME, organism-based; settings: in vivo
[37] = biological target: T3, UDP-3-O-acyl-N-acetylglucosamine deacetylase (Escherichia coli K-12, UniProt P0A725); test: Inhibition of LpxC in Escherichia coli isolate 35 ATCC 25922; design: species or system Escherichia coli ATCC 25922
T3 sequence (P0A725 whole entry): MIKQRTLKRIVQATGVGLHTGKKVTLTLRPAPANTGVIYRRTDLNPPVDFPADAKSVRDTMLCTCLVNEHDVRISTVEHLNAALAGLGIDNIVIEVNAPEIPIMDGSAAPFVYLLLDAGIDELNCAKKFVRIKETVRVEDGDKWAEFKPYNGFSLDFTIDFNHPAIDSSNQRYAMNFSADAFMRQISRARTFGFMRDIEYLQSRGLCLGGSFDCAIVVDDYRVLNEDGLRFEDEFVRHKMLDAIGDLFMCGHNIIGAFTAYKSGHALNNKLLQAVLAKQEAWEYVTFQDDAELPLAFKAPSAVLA

[38] = Half life in rat at 10 mg/kg, iv; format: ADME, organism-based; settings: in vivo
[39] = Clearance in mouse at 10 mg/kg, sc; format: ADME, organism-based; settings: in vivo
Pseudomonas aeruginosa [40] = test: Antibacterial activity against Pseudomonas aeruginosa assessed as reduction in bacterial burden in in-vivo blood infection septicemia model; format: functional; settings: read-out: PD50

Sigma intracellular receptor 2 (Homo sapiens), sequence (Q5BJF2 whole entry): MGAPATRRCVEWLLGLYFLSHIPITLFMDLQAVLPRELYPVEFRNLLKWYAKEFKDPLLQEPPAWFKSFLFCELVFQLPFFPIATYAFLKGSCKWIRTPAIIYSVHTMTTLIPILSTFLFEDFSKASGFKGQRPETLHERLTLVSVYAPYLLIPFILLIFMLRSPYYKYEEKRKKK

`CC(C)(N)[C@H](N[C@H]1CCc2cc(C#Cc3ccc(Cn4ccnc4CO)cc3)ccc21)C(=O)NO` gave a half-life [1] of 6.54 h, a bioavailability [2] of 74% and a clearance [3] of 4.39 mL/min/kg. For the same compound, the inhibition [4] was greater than 50%, the Vd [5] was 0.68 L/kg and the solubility [6] was 850 µg/mL (≈ 1790 µM). It also gave an MIC (Pseudomonas aeruginosa [7]) of 1 µg/mL (≈ 2.11 µM), an MIC90 (Pseudomonas aeruginosa [7]) of 4 µg/mL (≈ 8.45 µM) and a Vd [8] of 0.38 L/kg. The Activity (Rattus norvegicus [9]) was “Toxic”, the Activity (Rattus norvegicus [10]) was “Non-Toxic” and the Activity (Rattus norvegicus [11]) was “Non-Toxic”. For the same compound, the ED (Pseudomonas aeruginosa [12]) was 32 mg/kg, the AUC/dose (Cynomolgus monkey) was 4.07 µg·h/mL/mg/kg and the fraction unbound at 10 µM [13] was 0.067. For the same compound, the MIC (Escherichia coli [14]) was 0.5 to 1 µg/mL (≈ 1.06 to 2.11 µM), the MIC90 (Escherichia coli [14]) was 1 µg/mL (≈ 2.11 µM) and the IC50 [15] was 400 nM. For the same compound, the MIC (Pseudomonas aeruginosa [16]) was 0.125 µg/mL (≈ 0.264 µM), the clearance [17] was 15.6 mL/min/kg and the Vd [18] was 0.4 L/kg. The ED (Escherichia coli [19]) was 15.1 mg/kg, the ED (Pseudomonas aeruginosa [20]) was 25 mg/kg and the clearance [21] was 17.5 mL/min/kg. It also gave an ED (Klebsiella pneumoniae [22]) of 2.7 mg/kg, an inhibition [23] greater than 50% and an AUC/dose (Mus musculus [24]) of 0.95 µg·h/mL/mg/kg. It also gave an IC50 [25] of 2 nM, a half-life [26] of 1.2 h and a half-life [27] of 1.7 h. The fraction unbound at 10 µM [28] was 0.047, the fraction unbound at 10 µM [29] was 0.05 and the inhibition (Rattus norvegicus [30]) was 97%. For the same compound, the IC50 [31] was 4 nM, the MIC (Pseudomonas aeruginosa [32]) was 4 µg/mL (≈ 8.45 µM) and the MIC (Klebsiella pneumoniae [33]) was 0.125 µg/mL (≈ 0.264 µM). For the same compound, the MIC90 (Klebsiella pneumoniae [33]) was 8 µg/mL (≈ 16.9 µM), the AUC/dose (Rattus norvegicus [34]) was 1.07 µg·h/mL/mg/kg and the fraction unbound at 10 µM [35] was 0.06. For the same compound, the AUC/dose (Mus musculus [36]) was 0.7 µg·h/mL/mg/kg, the IC50 [37] was 4 nM and the half-life [38] was 1.87 h. It also gave a CL/F [39] of 24.4 mL/min/kg and an ED50 (Pseudomonas aeruginosa [40]) of 13 mg/kg.

Source: ChEMBL document CHEMBL4049409, “Structure-based discovery of LpxC inhibitors” (Bioorg Med Chem Lett, 2017)
